Data published in patent US20120301551A1, “COMPOUNDS AND COMPOSITIONS FOR TREATING NEURONAL DEATH OR NEUROLOGICAL DYSFUNCTION” (Neurotech Pharmaceuticals Co., Ltd., priority 2005, published 2012).
pIC50: −log10 of the molar value. “Also recorded” adds a separate entry of the source.

Experiments:
[1] = test system: mixed cortical cell cultures containing neurons and glia; assay: BSO-induced free radical neurotoxicity in mixed cortical cell cultures (LDH release); format: cell-based, mouse; details: for BSO-induced free radical neurotoxicity, effect in words: 10 mM BSO, 24 hr, 2-Hydroxy-TTBA or 2-Hydroxy-TPEA at doses as low as 0.3 μM, Li^+ 10 mM (legend 5 mM); for BSO-induced neuronal death (oxidative stress), effect in words: FIG. 5A: 10 mM BSO, 24 h, 1 μM 2-hydroxy TTBA (submicromolar), 5 mM Li^+
Method: Mouse cortical cell cultures (DIV 11-15) were exposed to 10 mM BSO, alone or with indicated doses of 2-Hydroxy-TTBA or 2-Hydroxy-TPEA. Neuronal death was analyzed 24 hr later by measuring levels of LDH released into the bathing medium, mean±SEM (n=9-12 culture wells per condition). *, Significant difference from BSO alone, p<0.05 using ANOVA and Student-Newman-Keuls test.
(§1) Mouse cortical cell cultures (DIV 11-15) were exposed to 50 μM Fe^2+ or 10 mM BSO, alone or with inclusion of 5 mM Li^+. Neuronal death was analyzed 24 hr later by measuring levels of LDH released into the bathing medium, mean±SEM (n=9-12 culture wells per condition).
Mouse cortical cell cultures (DIV 11-15) were exposed to 30 μM Fe^2+ or 10 mM BSO, alone or in the presence of 1 μM 2-hydroxy TTBA, 10-100 μM vitamin E, or 5 mM Li^+. Neuronal death was analyzed 24 h later by measuring LDH efflux in the bathing media (mean±SEM, n=12). *, Significant difference from the relevant control (Fe^2+ or BSO alone), p<0.05 using ANOVA and Student-Newman-Keuls test.
For mixed neuron-glia culture, mouse cerebral cortices were removed from brains of the 11-15 day-old-fetal mice (E11-15), gently triturated and plated on 24 well plates (2×10^5 cells/plate) precoated with 100 μg/ml poly-D-lysine and 4 pg/ml laminin. Cultures were maintained at 37° C. in a humidified 5% CO2 atmosphere. Plating media consist of Eagles minimal essential media (MEM, Earles salts, supplied glutamine-free) supplemented with 5% horse serum, 5% fetal bovine serum, 26.5 mM bicarbonate, 2 mM glutamine, and 21 mM glucose.
After 7-8 days in vitro (DIV 7-8), 10 μM cytosine arabinofuranoside (Ara-C) was included to halt overgrowth of glia. The drug treatment was carried on DIV 11-15 cortical cell culture. Overall neuronal cell injury was assessed by measuring amount of lactate dehydrogenase (LDH) released into the bathing medium 24 hr after neurotoxic insults as previously described (Koh and Choi, J Neurosci Methods 20:83-90, 1987).
Oxidative stress was induced by exposing mixed cortical cell cultures containing neurons and glia (DIV 11-15) to 50 μM FeCl2, a hydroxyl radical-producing transition metal via a Fenton reaction, or 10 mM DL-buthionine-[S,R]-sulfoximine (BSO), a glutathione depleting agent. Widespread neuronal death was observed 24 hours later. […] Administration of vitamin E prevented Fe^2+-induced free radical neurotoxicity at higher doses. This implies that 2-Hydroxy-TTBA or 2-Hydroxy-TPEA is a potent neuroprotectant against oxidative stress.

[2] = test system: mixed cortical cell cultures containing neurons and glia; assay: Fe2+-induced free radical neurotoxicity in mixed cortical cell cultures (LDH release); format: cell-based, mouse; details: for Fe^2+-induced free radical neurotoxicity, effect in words: 50 μM Fe^2+, 24 hr, 2-Hydroxy-TTBA or 2-Hydroxy-TPEA at doses as low as 0.3 μM, vitamin E at higher doses, Li^+ 10 mM (legend 5 mM); for Fe^2+-induced neuronal death (oxidative stress), effect in words: FIG. 5A: 30 μM Fe^2+, 24 h, 1 μM 2-hydroxy TTBA (submicromolar), 5 mM Li^+; for pIC50: Mus musculus, Neuron, 50 μM FeCl2, neuronal death 24 hr later (LDH), read-out: IC50 (50% protection against Fe^2+-induced free radical neurotoxicity)
Method: as §1
Mouse cortical cell cultures (DIV 11-15) were exposed to 30 μM Fe^2+ or 10 mM BSO, alone or in the presence of 1 μM 2-hydroxy TTBA, 10-100 μM vitamin E, or 5 mM Li^+.
For mixed neuron-glia culture, mouse cerebral cortices were removed from brains of the 11-15 day-old-fetal mice (E11-15), gently triturated and plated on 24 well plates (2×10^5 cells/plate) precoated with 100 μg/ml poly-D-lysine and 4 pg/ml laminin. Cultures were maintained at 37° C. in a humidified 5% CO2 atmosphere.
After 7-8 days in vitro (DIV 7-8), 10 μM cytosine arabinofuranoside (Ara-C) was included to halt overgrowth of glia. The drug treatment was carried on DIV 11-15 cortical cell culture.
Oxidative stress was induced by exposing mixed cortical cell cultures containing neurons and glia (DIV 11-15) to 50 μM FeCl2, a hydroxyl radical-producing transition metal via a Fenton reaction, or 10 mM DL-buthionine-[S,R]-sulfoximine (BSO), a glutathione depleting agent.

[3] = test system: cortical cell cultures containing neurons and glia; assay: cyclosporine A or calyculin A-induced neuronal cell apoptosis in cortical cell cultures; format: cell-based, mouse; details: 20 μM cyclosporine A, 24 hr; 100 μM Vitamin E, 1 μM 2-hydroxy-TTBA, 1 μM 2-hydroxy-TPEA
Method: Mouse cortical cell cultures (DIV 10-12) were exposed to 20 μM cyclosporine A or 10 nM calculin A, alone or with inclusion of 0.3-30 mM Li. Neuronal death was analyzed 24-28 hr later by measuring levels of LDH released into the bathing medium, mean±SEM (n=9-12 culture wells per condition).
Mouse cortical cell cultures (DIV 10-12) were exposed to 20 μM cyclosporine A, alone or with 100 μM Vitamin E, 1 μM 2-hydroxy-TTBA, or 1 μM 2-hydroxy-TPEA. Neuronal death was analyzed 24 hr later by measuring levels of LDH released into the bathing medium, mean±SEM (n=9-12 culture wells per condition).
Cortical cell cultures containing neurons and glia at 10-12 days in vitro (DIV 10-12) were exposed to 20 μM cyclosporine A (CsA) or 10 nM caliculin A (cal A). Neurons underwent widespread apoptosis 24 hr later as previously reported (McDonald et al., 1996; Ko et al., 2000). […] This implies that Li^+ and the neuroprotective drugs (vitamin E, trolox, BAS, CBAS, FBAS, TBAS, PBAS, MBAS, NPAA, NPPAA, 2-Hydroxy-TTBA, and 2-Hydroxy-TPEA) selectively prevent neuronal cell apoptosis and free radical-mediated necrosis, respectively.

[4] = test system: IL-1β; assay: LPS-induced IL-1β production in BV2 cells; format: cell-based
Method: Suppressing effects of chemical 01 in BV2 cell lines on production of IL-1β, IL-6 or TNF-α were evaluated. BV2 cells were exposed to 1 ug/ml LPS (inflammation-inducing material) with inclusion of chemical 01 at indicated doses. After 4 hours, supernatant were collected and concentrations of TNF-a were evaluated. In addition, BV2 cells were treated by the same method, and 24 hours later, supernatant were collected and concentrations of IL-1β and IL-6 were evaluated (mean±SEM, n=3). BV2 cells treated with LPS only were used as control.

Compound | BSO-induced free radical neurotoxicity, effect in words [1] | BSO-induced neuronal death (oxidative stress), effect in words ([1]; listed as 2-hydroxy TTBA) | BSO-induced neuronal death (oxidative stress), effect in words ([1]; listed as 2-hydroxy-TTBA) | Fe^2+-induced free radical neurotoxicity, effect in words [2] | Fe^2+-induced neuronal death (oxidative stress), effect in words ([2]; listed as 2-hydroxy TTBA) | Fe^2+-induced neuronal death (oxidative stress), effect in words ([2]; listed as 2-hydroxy-TTBA) | pIC50 [2] | neuroprotective effect against Fe^2+-induced oxidative neuronal death relative to vitamin E ([2]; higher than vitamin E) [times] | cyclosporine A-induced neuronal cell apoptosis, effect in words [3] | decrease of IL-1β released into media ([4]; 100 uM, 1 ug/ml LPS, 24 hours) | IL-1β decrease, in words ([4]; 1~100 uM)
O=C(O)c1cc(NCc2c(F)c(F)c(C(F)(F)F)c(F)c2F)ccc1O [2-Hydroxy-TTBA, 2-hydroxy-5-(2,3,5,6-tetrafluoro-4-trifluoromethyl-benzylamino)-benzoic acid] | nearly completely blocked | prevents oxidative stress | completely blocked | nearly completely blocked | prevents oxidative stress | completely blocked | 6.96 | 220 | not attenuated; also recorded: do not attenuate | – | –
O=C(O)c1cc(NCCc2ccc(C(F)(F)F)cc2)ccc1O [chemical 01, 2-Hydroxy-5-[2-(4-trifluoromethyl-phenyl)-ethylamino]-benzoic acid] | nearly completely blocked | – | – | nearly completely blocked | – | – | 7.00 | – | not attenuated; also recorded: do not attenuate | about 80% | dose-dependent manner
